Results published in PubChem BioAssay (NCI).
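The compound was tested at five concentrations on cells cultured in 96-well plates, with a 48-hour exposure period. TGI: total growth inhibition.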

What was measured:
Assay in all cases: inhibition of tumour cell growth, NCI panel, 48 h
[1] = system: IGROV1 ovarian
[2] = system: OVCAR-5 ovarian
[3] = system: ACHN renal
[4] = system: LOX IMVI melanoma
[5] = system: SNB-75 CNS
[6] = system: SNB-19 CNS
[7] = system: HS 578T breast
[8] = system: NCI/ADR-RES ovarian
[9] = system: SK-MEL-2 melanoma
[10] = system: T-47D breast
[11] = system: SF-295 CNS
[12] = system: DU-145 prostate
[13] = system: SR leukemia
[14] = system: U251 CNS
[15] = system: OVCAR-8 ovarian
[16] = system: A549 NSCLC
[17] = system: SW-620 colon
[18] = system: CCRF-CEM leukemia
[19] = system: RXF 393 renal
[20] = system: MOLT-4 leukemia
[21] = system: EKVX NSCLC
[22] = system: HOP-62 NSCLC
[23] = system: OVCAR-3 ovarian
[24] = system: UACC-62 melanoma
[25] = system: MDA-N
[26] = system: NCI-H522 lung
[27] = system: NCI-H23 lung
[28] = system: SF-268 CNS
[29] = system: UACC-257 melanoma
[30] = system: PC-3 prostate
[31] = system: SK-MEL-5 melanoma
[32] = system: UO-31 renal
[33] = system: CAKI-1 renal
[34] = system: HCC-2998 colon
[35] = system: HCT-15 colon
[36] = system: KM12 colon
[37] = system: MDA-MB-231 breast
[38] = system: OVCAR-4 ovarian
[39] = system: SN12C renal
[40] = system: A498 renal
[41] = system: M14 melanoma
[42] = system: RPMI-8226 leukemia
[43] = system: MALME-3M melanoma
[44] = system: NCI-H460 lung
[45] = system: HCT-116 colon
[46] = system: NCI-H226 lung
[47] = system: MDA-MB-435
[48] = system: 786-0 renal
[49] = system: COLO 205 colon
[50] = system: MCF7 breast
[51] = system: K-562 leukemia
[52] = system: SK-MEL-28 melanoma
[53] = system: TK-10 renal
[54] = system: SK-OV-3 ovarian
[55] = system: BT-549 breast
[56] = system: HT29 colon
[57] = system: SF-539 CNS
[58] = system: HL-60(TB) leukemia
[59] = system: HOP-92 NSCLC

Work on O=C(O)Cc1ccc2[nH]c(O)c(C3=Nc4ccccc4C3=O)c2c1 yielded a TGI [1] of 48.2 µM, a TGI [2] of over 100 µM and a TGI [3] of over 100 µM. It also gave a TGI [4] of over 100 µM, a TGI [5] of over 100 µM and a TGI [6] of over 100 µM. It also gave a TGI [7] of 77.5 µM, a TGI [8] of over 100 µM and a TGI [9] of over 100 µM. It also gave a TGI [10] of over 100 µM, a TGI [11] of over 100 µM and a TGI [12] of over 100 µM. The TGI [13] was 93 µM, the TGI [14] was over 100 µM and the TGI [15] was over 100 µM. For the same compound, the TGI [16] was over 100 µM, the TGI [17] was over 100 µM and the TGI [18] was over 100 µM. It also gave a TGI [19] of 58.5 µM, a TGI [20] of over 100 µM and a TGI [21] of over 100 µM. It also gave a TGI [22] of over 100 µM, a TGI [23] of 67.3 µM and a TGI [24] of 85.7 µM. It also gave a TGI [25] of over 100 µM, a TGI [26] of over 100 µM and a TGI [27] of over 100 µM. The TGI [28] was over 100 µM, the TGI [29] was over 100 µM and the TGI [30] was over 100 µM. For the same compound, the TGI [31] was 55.6 µM, the TGI [32] was over 100 µM and the TGI [33] was over 100 µM. For the same compound, the TGI [34] was over 100 µM, the TGI [35] was over 100 µM and the TGI [36] was over 100 µM. The TGI [37] was over 100 µM, the TGI [38] was over 100 µM and the TGI [39] was over 100 µM. For the same compound, the TGI [40] was 98.7 µM, the TGI [41] was over 100 µM and the TGI [42] was over 100 µM. It also gave a TGI [43] of over 100 µM, a TGI [44] of over 100 µM and a TGI [45] of 68.5 µM. It also gave a TGI [46] of over 100 µM, a TGI [47] of over 100 µM and a TGI [48] of over 100 µM. The TGI [49] was 92.1 µM, the TGI [50] was 36.1 µM and the TGI [51] was over 100 µM. It also gave a TGI [52] of over 100 µM, a TGI [53] of over 100 µM and a TGI [54] of 94.8 µM. It also gave a TGI [55] of over 100 µM and a TGI [56] of over 100 µM.

Compound CCOP(=O)(OCC)C(N)c1ccc(Cl)cc1 (configuration not stated) has a TGI [1] of over 100 µM, a TGI [2] of over 100 µM and a TGI [3] of over 100 µM. It also gave a TGI [4] of over 100 µM, a TGI [6] of over 100 µM and a TGI [7] of over 100 µM. For the same compound, the TGI [8] was over 100 µM, the TGI [9] was over 100 µM and the TGI [10] was over 100 µM. It also gave a TGI [57] of over 100 µM, a TGI [12] of over 100 µM and a TGI [14] of over 100 µM. For the same compound, the TGI [15] was over 100 µM, the TGI [16] was over 100 µM and the TGI [17] was over 100 µM. The TGI [18] was over 100 µM, the TGI [20] was over 100 µM and the TGI [21] was over 100 µM. For the same compound, the TGI [24] was over 100 µM, the TGI [25] was over 100 µM and the TGI [26] was over 100 µM. It also gave a TGI [27] of over 100 µM, a TGI [28] of over 100 µM and a TGI [29] of over 100 µM. For the same compound, the TGI [30] was over 100 µM, the TGI [31] was over 100 µM and the TGI [33] was over 100 µM. For the same compound, the TGI [35] was over 100 µM, the TGI [36] was over 100 µM and the TGI [37] was over 100 µM. It also gave a TGI [38] of over 100 µM, a TGI [39] of over 100 µM and a TGI [40] of over 100 µM. For the same compound, the TGI [41] was over 100 µM, the TGI [42] was over 100 µM and the TGI [43] was over 100 µM. The TGI [44] was over 100 µM, the TGI [45] was over 100 µM and the TGI [47] was over 100 µM. It also gave a TGI [58] of over 100 µM, a TGI [48] of over 100 µM and a TGI [49] of over 100 µM. The TGI [50] was over 100 µM, the TGI [52] was over 100 µM and the TGI [53] was over 100 µM. It also gave a TGI [55] of over 100 µM, a TGI [59] of over 100 µM and a TGI [56] of over 100 µM.

O=C(O)/C(Cc1ccc([N+](=O)[O-])cc1)=N\O gave a TGI [1] of over 100 µM, a TGI [2] of over 100 µM and a TGI [3] of over 100 µM. It also gave a TGI [4] of over 100 µM, a TGI [6] of over 100 µM and a TGI [7] of over 100 µM. It also gave a TGI [8] of over 100 µM, a TGI [9] of over 100 µM and a TGI [10] of over 100 µM. The TGI [11] was over 100 µM, the TGI [57] was over 100 µM and the TGI [12] was over 100 µM. The TGI [14] was over 100 µM, the TGI [15] was over 100 µM and the TGI [16] was over 100 µM. The TGI [17] was over 100 µM, the TGI [18] was over 100 µM and the TGI [19] was over 100 µM. It also gave a TGI [21] of over 100 µM, a TGI [22] of over 100 µM and a TGI [23] of over 100 µM. The TGI [24] was over 100 µM, the TGI [25] was over 100 µM and the TGI [26] was over 100 µM. For the same compound, the TGI [27] was over 100 µM, the TGI [28] was over 100 µM and the TGI [29] was over 100 µM. It also gave a TGI [30] of over 100 µM, a TGI [31] of over 100 µM and a TGI [32] of over 100 µM. For the same compound, the TGI [33] was over 100 µM, the TGI [34] was over 100 µM and the TGI [35] was over 100 µM. It also gave a TGI [36] of over 100 µM, a TGI [37] of over 100 µM and a TGI [38] of over 100 µM. It also gave a TGI [39] of over 100 µM, a TGI [40] of over 100 µM and a TGI [41] of over 100 µM. It also gave a TGI [42] of over 100 µM, a TGI [43] of over 100 µM and a TGI [44] of over 100 µM. The TGI [45] was over 100 µM, the TGI [46] was over 100 µM and the TGI [47] was over 100 µM. For the same compound, the TGI [58] was over 100 µM, the TGI [48] was over 100 µM and the TGI [49] was over 100 µM. For the same compound, the TGI [50] was over 100 µM, the TGI [51] was over 100 µM and the TGI [52] was over 100 µM. For the same compound, the TGI [53] was over 100 µM, the TGI [54] was over 100 µM and the TGI [55] was over 100 µM. It also gave a TGI [59] of over 100 µM and a TGI [56] of over 100 µM.

Work on COc1ccc(N2C=Nn3c(nc4sc5c(c4c3=O)CCCC5)C2)cc1 yielded a TGI [1] of over 100 µM, a TGI [2] of over 100 µM and a TGI [3] of 53.2 µM. For the same compound, the TGI [4] was over 100 µM, the TGI [5] was over 100 µM and the TGI [6] was over 100 µM. It also gave a TGI [7] of 9.6 µM, a TGI [8] of over 100 µM and a TGI [9] of 93.1 µM. For the same compound, the TGI [10] was over 100 µM, the TGI [11] was 68 µM and the TGI [12] was over 100 µM. The TGI [13] was over 100 µM, the TGI [14] was over 100 µM and the TGI [15] was over 100 µM. The TGI [16] was over 100 µM, the TGI [17] was over 100 µM and the TGI [18] was over 100 µM. The TGI [19] was 57.1 µM, the TGI [20] was over 100 µM and the TGI [21] was over 100 µM. It also gave a TGI [22] of 13.5 µM, a TGI [23] of over 100 µM and a TGI [24] of over 100 µM. It also gave a TGI [25] of over 100 µM, a TGI [26] of over 100 µM and a TGI [27] of over 100 µM. It also gave a TGI [28] of over 100 µM, a TGI [29] of over 100 µM and a TGI [30] of over 100 µM. The TGI [31] was over 100 µM, the TGI [32] was over 100 µM and the TGI [33] was over 100 µM. It also gave a TGI [34] of over 100 µM, a TGI [35] of over 100 µM and a TGI [36] of over 100 µM. It also gave a TGI [37] of 40 µM, a TGI [38] of over 100 µM and a TGI [39] of over 100 µM. For the same compound, the TGI [40] was 41.8 µM, the TGI [41] was over 100 µM and the TGI [42] was over 100 µM. For the same compound, the TGI [43] was 78 µM, the TGI [44] was over 100 µM and the TGI [45] was over 100 µM. It also gave a TGI [46] of over 100 µM, a TGI [47] of over 100 µM and a TGI [48] of 20.7 µM. It also gave a TGI [49] of over 100 µM, a TGI [50] of over 100 µM and a TGI [51] of over 100 µM. The TGI [52] was over 100 µM, the TGI [53] was over 100 µM and the TGI [54] was over 100 µM. It also gave a TGI [55] of over 100 µM, a TGI [59] of 41.8 µM and a TGI [56] of over 100 µM.
